Article PMC12549899 (Nature Communications, 2025)
pIC50: −log10 of the molar value. Where “and” joins values, the source holds several entries; their conditions need not be identical. Equal entries are not always repeated.

Target: T1, DrOTOP1 M573W (Danio rerio, UniProt Q7ZWK8, M573W)
T1 construct: A previously generated codon-optimized full-length DrOTOP1[8]; (UniProt: Q7ZWK8) construct; expressed in transfected cells; host or cells: HEK-293 (CRL-1573, ATCC)
T1 sequence (Q7ZWK8 1-586 M573W): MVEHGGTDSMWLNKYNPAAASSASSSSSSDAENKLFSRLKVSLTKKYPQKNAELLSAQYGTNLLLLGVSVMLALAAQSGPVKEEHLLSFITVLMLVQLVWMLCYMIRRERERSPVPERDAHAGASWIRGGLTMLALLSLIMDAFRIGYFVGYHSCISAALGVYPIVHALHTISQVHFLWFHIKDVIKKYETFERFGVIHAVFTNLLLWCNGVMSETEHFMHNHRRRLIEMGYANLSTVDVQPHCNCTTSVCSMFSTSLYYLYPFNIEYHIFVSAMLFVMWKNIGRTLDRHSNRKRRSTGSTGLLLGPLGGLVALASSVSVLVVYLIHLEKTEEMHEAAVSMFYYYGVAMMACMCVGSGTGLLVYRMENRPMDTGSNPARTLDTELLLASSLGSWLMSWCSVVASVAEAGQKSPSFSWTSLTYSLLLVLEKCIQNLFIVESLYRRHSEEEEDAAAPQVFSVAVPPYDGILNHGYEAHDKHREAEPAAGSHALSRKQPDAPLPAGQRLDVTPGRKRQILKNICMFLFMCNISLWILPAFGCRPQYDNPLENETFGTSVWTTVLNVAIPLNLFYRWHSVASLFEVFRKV
Assay: Whole-cell patch-clamp, inhibition of acid-evoked currents, DrOTOP1 M573W (outer site)
Format: cell-based, zebrafish (Danio rerio)
Source text: To functionally test the significance of the two binding sites identified by cryo-EM, we generated point mutations of DrOTOP1 using the binding poses and conformational changes observed in DrOTOP1_C2.2 to guide our mutations. As per the binding pose that best fits our cryo-EM density, C2.2 forms the following interactions in the outer site: hydrophobic packing against many non-polar residues W126, G130, M133, L134, F271, F570, and M573, and π-stacking with W532 (Fig. 5A). In addition, C2.2 could potentially form H-bonds with E267, if the sidechain is protonated or a water bridge is present, and with H574 if it moves closer (Fig. 5A). Likewise, C2.36 presents a heterocyclic nitrogen that can potentially form a H-bond with E267, similarly, provided a protonation or water bridge is present (Fig. 5B). In addition, C2.36 forms a T-shaped π-stacking interaction with H574, whose sidechain has rotated 90 degrees (compared to DrOTOP1_apo), presumably to accommodate the interaction (Fig. 5B). Considering other inhibitors discovered from the second round of screening, many contain functional groups like the carbonyl groups of Group 1 molecules and the heterocyclic nitrogen atoms of Group 2 molecules (Supplementary Fig. 3E), that can potentially form similar H-bonds with E267 as C2.2 and C2.36, assuming the binding modes are similar. In the central site, C2.2 binds with the following interactions: hydrophobic packing with residues V201, F271, A274, V278, and A388, π-stacking with F277, and H-bonding with E384 (Fig. 5C).
Each non-aromatic residue was mutated to tryptophan, which was expected to cause steric occlusion. […] This seemed appropriate given the small number of H-bonds in these pockets, the ambiguity of how the inhibitors fit the density, and the prevalence of hydrophobic packing interactions (Fig. 5A–C).
HEK-293 cells (CRL-1573, ATCC) were cultured in DMEM (Thermofisher 11995073) containing 10% fetal bovine serum (Life Technology 16000044) and Penicillin-Streptomycin (100 I.U./mL) and (100 µg/mL), respectively. Cells were transfected with WT DrOTOP1 or mutant DrOTOP1 channels in 35 mm petri dishes, with ~ 500 ng DNA and 2 μL TransIT-LT1 transfection reagent (Mirus Bio Corporation, Cat # MIR2300) following the manufacturer’s protocol. All constructs were subcloned into a pcDNA3.1 vector that adds an N-terminal fusion tag consisting of an octahistidine tag followed by eGFP, a Gly-Thr-Gly-Thr linker and a 3C protease cleavage site ([…]) followed by WT DrOTOP1, WT mOTOP1, WT hOTOP1, or mutated DrOTOP1. Point mutations were generated via In-Fusion Cloning (Takara) using single-stranded DNA primers generated through IDT and sequence confirmed by Sanger sequencing (GeneWiz).
Whole-cell patch-clamp recording was performed as previously described[6],[22],[25]. Recordings were made with an Axopatch 200B amplifier, digitized with a Digidata 1322a 16-bit data acquisition system, acquired with pClamp 8.2 and analyzed with Clampfit 10 (Molecular Devices). Recordings were sampled at 5 kHz and filtered at 1 kHz. Patch Pipettes with resistance of […] were fabricated from borosilicate glass, and only recordings with a giga-Ohm seal were used in analysis. Membrane potential was held at −80 mV for the duration of recordings. At the beginning of recordings and between, cells were washed with Tyrode’s solution (see below). Once a giga-Ohm seal was reached, cells were lifted and placed in front of microcapillary tubes controlled by a Fast-Step perfusion system (Warner Instruments) so that extracellular solutions could be rapidly exchanged during each experiment.
Standard Tyrode’s solution consisted of 145 mM NaCl, 5 mM KCl, MgCl2, 2 mM CaCl2, 20 mM D-Glucose, and 10 mM HEPES (for pH 7.4). All other extracellular patch-clamp solutions contained 160 mM NMDG-Cl, 2 mM CaCl2, and the following buffers: 10 mM HEPES (for pH 7.4), 10 mM MES (for pH 6.5-5.5), 10 mM CHES for pH 10, and 10 mM HomoPIPES for (pH 5.0). pH adjusted with HCl. […]

Question: Which results are given for `C=C(C)COc1ccccc1NC(=O)c1nc[nH]c1C` [C2.2]?
Answer: Hill coefficient: 1.238; inhibition at 3 µM (3 µM, single cells): 4.02%; inhibition at 30 µM (30 µM, single cells): 46.6%; inhibition at 100 µM (100 µM, single cells): 84.3%; inhibition at 300 µM (300 µM, single cells): 91.4%; pIC50 (pH 5.5): 4.52

Question: How did the Inhibition of currents (100 µM, single cells) turn out when `O=C(/C(=N\O)c1ccccc1)c1ccccc1` [C11, benzil monoxime] was run?
Answer: The Inhibition of currents was 53.3175% and 66.3617% and 67.3077% and 51.54%.

Question: What about the inhibition at 100 µM (100 µM, single cells) of the same molecule?
Answer: Its inhibition at 100 µM is 51.6%.
